In US20060069132A1, “Azolecarboxamide herbicides” (priority 2004, published 2006):

Tests used:
Assay in all cases: Test J Compounds 2 and 6 alone and in combination with other herbicides, foliage spray
Conditions in all cases: applied alone
cocklebur (XANST) = type: in vivo, Xanthium strumarium; design: key: 0 = no effect, 100 = complete control
Text: (§1) Seeds of test plants consisting of barnyardgrass (ECHCG; Echinochloa crus-galli (L.) Beauv.), blackgrass (ALOMY; Alopecurus myosuroides Huds.), Surinam grass (BRADC; Urochloa decumbens (Staph) R. D. Webster, previously named Brachiaria decumbens Stapf), cocklebur (XANST, Xanthium strumarium L.), corn (ZEAMD, Zea mays L. cv. ‘Pioneer 33G26’), large crabgrass (DIGSA, Digitaria sanguinalis (L.) Scop.), giant foxtail (SETFA, Setaria faberi Herrm.), lambsquarters (CHEAL, Chenopodium album L.), morningglory (IPOCO, Ipomoea coccinea L.), pigweed (AMARE, Amaranthus retroflexus L.), velvetleaf (ABUTH, Abutilon theophrasti Medik.) wheat (TRZAS, Triticum aestivum L. cv. ‘Recital’) and wild oat (AVEFA, Avena fatua L.) were planted in Redi-Earth® planting medium (Scotts Company, 14111 Scottslawn Road, Marysville, Ohio 43041) comprising spaghnum peat moss and vermiculite. Seeds of small-seeded species were planted about 1 cm deep; larger seeds were planted about 2.5 cm deep. Plants were grown in a greenhouse using supplemental lighting to maintain a photoperiod of about 14 hours; daytime and nighttime temperatures were about 24-30° C. and 22-25° C., respectively. Balanced fertilizer was applied through the watering system. The plants were grown for 7 to 11 days so that at time of treatment the plants ranged in height from 2 to 18 cm (1- to 4-leaf stage). Treatments consisted of Compounds 2 and 6 (technical material), atrazine (90DF), terbacil (Sinbar® 80DF), hexazinone (Velpar® 75WG), diuron (Karmex® 80WP) and paraquat (Gramoxone® Extra, 37%) alone and in combination, suspended or dissolved in an aqueous solvent comprising a nonionic surfactant and applied as a foliage spray using a volume of 541 L/ha. Each treatment was triply replicated. […] Treated plants and controls were maintained in the greenhouse and watered as needed with care to not wet the foliage for the first 24 hours after treatment. The effects on the plants 15 days after treatment were visually compared to untreated controls. Plant response ratings, listed in Table J as the means of the thee replicates, are based on a scale of 0 to 100 where 0 is no effect and 100 is complete control. Also listed in Table J are the expected effects for the mixtures calculated using Colby's Equation.

pigweed (AMARE) = type: in vivo, Amaranthus retroflexus; design: key: 0 = no effect, 100 = complete control
Text: (§2) Colby's Equation was used to calculate the expected additive herbicidal effect of the mixtures of Compound 6 with Harmony® Extra (i.e. a 2:1 mixture by weight of thifensulfuron-methyl and tribenuron-methyl). Colby's Equation (Colby, S. R. “Calculating Synergistic and Antagonistic Responses of Herbicide Combinations,” Weeds, 15(1), pp 20-22 (1967)) calculates the expected additive effect of herbicidal mixtures, and for two active ingredients is of the form: Pa+b=Pa+Pb−(PaPb/100) wherein • Pa+b is the percentage effect of the mixture expected from additive contribution of the individual components, • Pa is the observed percentage effect of the first active ingredient at the same use rate as in the mixture, and • Pb is the observed percentage effect of the second active ingredient at the same use rate as in the mixture.
as §1

blackgrass (ALOMY) = type: in vivo, Alopecurus myosuroides; design: key: 0 = no effect, 100 = complete control
Text: as §2, §1

corn (ZEAMD) = type: in vivo, Zea mays; design: key: percentage herbicidal effect (observed)
Text: as §2, §1

lambsquarters (CHEAL) = type: in vivo, Chenopodium album; design: key: % herbicidal effect (observed)
Text: as §2, §1

wheat (TRZAS) = type: in vivo, Triticum aestivum; design: key: 0 = no effect, 100 = complete control
Text: as §2, §1

wild oat (AVEFA) = type: in vivo, Avena fatua; design: key: 0 = no effect, 100 = complete control
Text: as §2, §1

barnyardgrass (ECHCG) = type: in vivo, Echinochloa crus-galli; design: key: percentage herbicidal effect (observed)
Text: as §2, §1

large crabgrass (DIGSA) = type: in vivo, Digitaria sanguinalis; design: key to DIGSA Obsd.: 0 = no effect, 100 = complete control
Text: as §2, §1

giant foxtail (SETFA) = type: in vivo, Setaria faberi; design: key: 0 = no effect, 100 = complete control
Text: as §1

morningglory (IPOCO) = type: in vivo, Ipomoea coccinea; design: key: 0 = no effect, 100 = complete control
Text: as §1

velvetleaf (ABUTH) = type: in vivo, Abutilon theophrasti; design: key: 0 = no effect, 100 = complete control
Text: as §2, §1

Surinam grass (BRADC) = type: in vivo, Urochloa decumbens; design: key: 0 = no effect, 100 = complete control
Text: as §2, §1

CN(C)c1nc(=O)n(C2CCCCC2)c(=O)n1C [hexazinone]
XANST Obsd. (cocklebur (XANST); 100 g a.i./ha): 100
XANST Obsd. (cocklebur (XANST); 200 g a.i./ha): 100
AMARE Obsd. (pigweed (AMARE); 100 g a.i./ha): 88
AMARE Obsd. (pigweed (AMARE); 200 g a.i./ha): 80
ALOMY Obsd. (blackgrass (ALOMY); 100 g a.i./ha): 40
ALOMY Obsd. (blackgrass (ALOMY); 200 g a.i./ha): 78
ZEAMD Obsd. (corn (ZEAMD); 100 g a.i./ha): 45
ZEAMD Obsd. (corn (ZEAMD); 200 g a.i./ha): 53
CHEAL Obsd. (lambsquarters (CHEAL); 100 g a.i./ha): 78
CHEAL Obsd. (lambsquarters (CHEAL); 200 g a.i./ha): 87
TRZAS Obsd. (wheat (TRZAS); 100 g a.i./ha): 35
TRZAS Obsd. (wheat (TRZAS); 200 g a.i./ha): 60
AVEFA Obsd. (wild oat (AVEFA); 100 g a.i./ha): 53
AVEFA Obsd. (wild oat (AVEFA); 200 g a.i./ha): 62
ECHCG Obsd. (barnyardgrass (ECHCG); 100 g a.i./ha): 15
ECHCG Obsd. (barnyardgrass (ECHCG); 200 g a.i./ha): 53
DIGSA Obsd. (large crabgrass (DIGSA); 100 g a.i./ha): 38
DIGSA Obsd. (large crabgrass (DIGSA); 200 g a.i./ha): 53
SETFA Obsd. (giant foxtail (SETFA); 100 g a.i./ha): 28
SETFA Obsd. (giant foxtail (SETFA); 200 g a.i./ha): 45
IPOCO Obsd. (morningglory (IPOCO); 100 g a.i./ha): 92
IPOCO Obsd. (morningglory (IPOCO); 200 g a.i./ha): 100
ABUTH Obsd. (velvetleaf (ABUTH); 100 g a.i./ha): 82
ABUTH Obsd. (velvetleaf (ABUTH); 200 g a.i./ha): 77
BRADC Obsd. (Surinam grass (BRADC); 100 g a.i./ha): 62
BRADC Obsd. (Surinam grass (BRADC); 200 g a.i./ha): 70

C[n+]1ccc(-c2cc[n+](C)cc2)cc1 [paraquat]
XANST Obsd. (cocklebur (XANST); 31 g a.i./ha): 100
XANST Obsd. (cocklebur (XANST); 62 g a.i./ha): 87
AMARE Obsd. (pigweed (AMARE); 31 g a.i./ha): 90
AMARE Obsd. (pigweed (AMARE); 62 g a.i./ha): 100
ALOMY Obsd. (blackgrass (ALOMY); 31 g a.i./ha): 60
ALOMY Obsd. (blackgrass (ALOMY); 62 g a.i./ha): 73
ZEAMD Obsd. (corn (ZEAMD); 31 g a.i./ha): 43
ZEAMD Obsd. (corn (ZEAMD); 62 g a.i./ha): 63
CHEAL Obsd. (lambsquarters (CHEAL); 31 g a.i./ha): 95
CHEAL Obsd. (lambsquarters (CHEAL); 62 g a.i./ha): 100
TRZAS Obsd. (wheat (TRZAS); 31 g a.i./ha): 35
TRZAS Obsd. (wheat (TRZAS); 62 g a.i./ha): 83
AVEFA Obsd. (wild oat (AVEFA); 31 g a.i./ha): 42
AVEFA Obsd. (wild oat (AVEFA); 62 g a.i./ha): 63
ECHCG Obsd. (barnyardgrass (ECHCG); 31 g a.i./ha): 45
ECHCG Obsd. (barnyardgrass (ECHCG); 62 g a.i./ha): 77
DIGSA Obsd. (large crabgrass (DIGSA); 31 g a.i./ha): 78
DIGSA Obsd. (large crabgrass (DIGSA); 62 g a.i./ha): 85
SETFA Obsd. (giant foxtail (SETFA); 31 g a.i./ha): 72
SETFA Obsd. (giant foxtail (SETFA); 62 g a.i./ha): 88
IPOCO Obsd. (morningglory (IPOCO); 31 g a.i./ha): 58
IPOCO Obsd. (morningglory (IPOCO); 62 g a.i./ha): 90
ABUTH Obsd. (velvetleaf (ABUTH); 31 g a.i./ha): 70
ABUTH Obsd. (velvetleaf (ABUTH); 62 g a.i./ha): 92
BRADC Obsd. (Surinam grass (BRADC); 31 g a.i./ha): 67
BRADC Obsd. (Surinam grass (BRADC); 62 g a.i./ha): 95

Cc1[nH]c(=O)n(C(C)(C)C)c(=O)c1Cl [terbacil]
XANST Obsd. (cocklebur (XANST); 250 g a.i./ha): 68
XANST Obsd. (cocklebur (XANST); 500 g a.i./ha): 97
AMARE Obsd. (pigweed (AMARE); 250 g a.i./ha): 63
AMARE Obsd. (pigweed (AMARE); 500 g a.i./ha): 97
ALOMY Obsd. (blackgrass (ALOMY); 250 g a.i./ha): 62
ALOMY Obsd. (blackgrass (ALOMY); 500 g a.i./ha): 97
ZEAMD Obsd. (corn (ZEAMD); 250 g a.i./ha): 30
ZEAMD Obsd. (corn (ZEAMD); 500 g a.i./ha): 75
CHEAL Obsd. (lambsquarters (CHEAL); 250 g a.i./ha): 93
CHEAL Obsd. (lambsquarters (CHEAL); 500 g a.i./ha): 100
TRZAS Obsd. (wheat (TRZAS); 250 g a.i./ha): 55
TRZAS Obsd. (wheat (TRZAS); 500 g a.i./ha): 90
AVEFA Obsd. (wild oat (AVEFA); 250 g a.i./ha): 68
AVEFA Obsd. (wild oat (AVEFA); 500 g a.i./ha): 97
ECHCG Obsd. (barnyardgrass (ECHCG); 250 g a.i./ha): 15
ECHCG Obsd. (barnyardgrass (ECHCG); 500 g a.i./ha): 63
DIGSA Obsd. (large crabgrass (DIGSA); 250 g a.i./ha): 45
DIGSA Obsd. (large crabgrass (DIGSA); 500 g a.i./ha): 48
SETFA Obsd. (giant foxtail (SETFA); 250 g a.i./ha): 18
SETFA Obsd. (giant foxtail (SETFA); 500 g a.i./ha): 55
IPOCO Obsd. (morningglory (IPOCO); 250 g a.i./ha): 78
IPOCO Obsd. (morningglory (IPOCO); 500 g a.i./ha): 100
ABUTH Obsd. (velvetleaf (ABUTH); 250 g a.i./ha): 92
ABUTH Obsd. (velvetleaf (ABUTH); 500 g a.i./ha): 100
BRADC Obsd. (Surinam grass (BRADC); 250 g a.i./ha): 75
BRADC Obsd. (Surinam grass (BRADC); 500 g a.i./ha): 73
